The test system of the data set is CCRIS mutagenicity, Ames/micronucleus/aberration tests. Briefly: CCRIS mutagenicity studies.
The mark [1] stands for this setting: Test System: AMES SALMONELLA TYPHIMURIUM, Strain/Indicator: TA98, Metabolic Activation: NONE, Method: PREINCUBATION
Setting [2] is: Test System: AMES SALMONELLA TYPHIMURIUM, Strain/Indicator: TA100, Metabolic Activation: NONE, Method: PREINCUBATION
Where [3] appears, read: Test System: MOUSE LYMPHOMA, Strain/Indicator: L5178Y (TK+/TK-), Metabolic Activation: NONE, Method: SUSPENSION/PLATE.

Structures are written as SMILES. Calls of active or inactive are those of the source. No rule for the calls is given here.

`Nc1ccccc1Cl`: the mutagenic call was “inactive; negative” (Test System: AMES SALMONELLA TYPHIMURIUM, Strain/Indicator: TA97, Metabolic Activation: HAMSTER, LIVER, S-9, AROCLOR 1254 (10%), Method: PREINCUBATION); “inactive; negative” (Test System: AMES SALMONELLA TYPHIMURIUM, Strain/Indicator: TA97, Metabolic Activation: HAMSTER, LIVER, S-9, AROCLOR 1254 (30%), Method: PREINCUBATION); “inactive; negative” (Test System: AMES SALMONELLA TYPHIMURIUM, Strain/Indicator: TA97, Metabolic Activation: NONE, Method: PREINCUBATION); “inactive; negative” (Test System: AMES SALMONELLA TYPHIMURIUM, Strain/Indicator: TA97, Metabolic Activation: RAT, LIVER, S-9, AROCLOR 1254 (10%), Method: PREINCUBATION); “inactive; negative” (Test System: AMES SALMONELLA TYPHIMURIUM, Strain/Indicator: TA97, Metabolic Activation: RAT, LIVER, S-9, AROCLOR 1254 (30%), Method: PREINCUBATION); “inactive; negative” (Test System: AMES SALMONELLA TYPHIMURIUM, Strain/Indicator: TA98, Metabolic Activation: HAMSTER, LIVER, S-9, AROCLOR 1254 (10%), Method: PREINCUBATION). Moreover, the mutagenic call is, setting by setting: (Test System: AMES SALMONELLA TYPHIMURIUM, Strain/Indicator: TA98, Metabolic Activation: HAMSTER, LIVER, S-9, AROCLOR 1254 (30%), Method: PREINCUBATION) “inactive; negative”; under setting [1], “inactive; negative”; (Test System: AMES SALMONELLA TYPHIMURIUM, Strain/Indicator: TA98, Metabolic Activation: RAT, LIVER, S-9, AROCLOR 1254 (10%), Method: PREINCUBATION) “inactive; negative”; (Test System: AMES SALMONELLA TYPHIMURIUM, Strain/Indicator: TA98, Metabolic Activation: RAT, LIVER, S-9, AROCLOR 1254 (30%), Method: PREINCUBATION) “inactive; negative”; (Test System: AMES SALMONELLA TYPHIMURIUM, Strain/Indicator: TA100, Metabolic Activation: HAMSTER, LIVER, S-9, AROCLOR 1254 (10%), Method: PREINCUBATION) “inactive; negative”; (Test System: AMES SALMONELLA TYPHIMURIUM, Strain/Indicator: TA100, Metabolic Activation: HAMSTER, LIVER, S-9, AROCLOR 1254 (30%), Method: PREINCUBATION) “inactive; negative”. The mutagenic call runs as follows: under setting [2], “inactive; negative”; (Test System: AMES SALMONELLA TYPHIMURIUM, Strain/Indicator: TA100, Metabolic Activation: RAT, LIVER, S-9, AROCLOR 1254 (10%), Method: PREINCUBATION) “inactive; negative”; (Test System: AMES SALMONELLA TYPHIMURIUM, Strain/Indicator: TA100, Metabolic Activation: RAT, LIVER, S-9, AROCLOR 1254 (30%), Method: PREINCUBATION) “inactive; negative”; (Test System: AMES SALMONELLA TYPHIMURIUM, Strain/Indicator: TA1535, Metabolic Activation: HAMSTER, LIVER, S-9, AROCLOR 1254 (10%), Method: PREINCUBATION) “inactive; negative”; (Test System: AMES SALMONELLA TYPHIMURIUM, Strain/Indicator: TA1535, Metabolic Activation: HAMSTER, LIVER, S-9, AROCLOR 1254 (30%), Method: PREINCUBATION) “inactive; negative”; (Test System: AMES SALMONELLA TYPHIMURIUM, Strain/Indicator: TA1535, Metabolic Activation: NONE, Method: PREINCUBATION) “inactive; negative”. In addition, the mutagenic call (Test System: AMES SALMONELLA TYPHIMURIUM, Strain/Indicator: TA1535, Metabolic Activation: RAT, LIVER, S-9, AROCLOR 1254 (10%), Method: PREINCUBATION) is “inactive; negative”; the mutagenic call (Test System: AMES SALMONELLA TYPHIMURIUM, Strain/Indicator: TA1535, Metabolic Activation: RAT, LIVER, S-9, AROCLOR 1254 (30%), Method: PREINCUBATION) was “inactive; negative”; the mutagenic call (Test System: CHINESE HAMSTER V-79, Strain/Indicator: V-79/8-AZAGUANINE, Metabolic Activation: NONE, Method: SUSPENSION/PLATE) was “active; positive”; the mutagenic call (Test System: CHINESE HAMSTER V-79, Strain/Indicator: V-79/OUABAIN, Metabolic Activation: NONE, Method: SUSPENSION/PLATE) is “inactive; negative”; the mutagenic call under setting [3] was “inactive; negative”; the mutagenic call (Test System: MOUSE LYMPHOMA, Strain/Indicator: L5178Y (TK+/TK-), Metabolic Activation: RAT, LIVER, S-9, AROCLOR 1254, Method: SUSPENSION/PLATE) is “active; positive”. Besides, under “Test System: UDS RODENT HEPATOCYTES, Strain/Indicator: THY INCORP (NON-S-PHASE), Metabolic Activation: NONE, Method: AUTORADIOGRAPHY”, the mutagenic call was “inactive; negative”.
On to `CC(=O)Nc1ccc(Oc2ccc(N(O)C=O)cc2)cc1`, for which the mutagenic call was “active; positive” (Test System: AMES SALMONELLA TYPHIMURIUM, Strain/Indicator: TA98(1,8-DNP6), Metabolic Activation: NONE, Method: PREINCUBATION); “active; positive” (Test System: AMES SALMONELLA TYPHIMURIUM, Strain/Indicator: TA98(1,8-DNP6), Metabolic Activation: RAT, LIVER, S-9, AROCLOR 1254, Method: PREINCUBATION); “active; positive” (Test System: AMES SALMONELLA TYPHIMURIUM, Strain/Indicator: TA98(NR), Metabolic Activation: NONE, Method: PREINCUBATION); “active; positive” (Test System: AMES SALMONELLA TYPHIMURIUM, Strain/Indicator: TA98(NR), Metabolic Activation: RAT, LIVER, S-9, AROCLOR 1254, Method: PREINCUBATION); “active; positive” under setting [1]; “active; positive” (Test System: AMES SALMONELLA TYPHIMURIUM, Strain/Indicator: TA98, Metabolic Activation: RAT, LIVER, S-9, AROCLOR 1254, Method: PREINCUBATION). Moreover, the mutagenic call (Test System: AMES SALMONELLA TYPHIMURIUM, Strain/Indicator: TA100(NR), Metabolic Activation: NONE, Method: PREINCUBATION) was “active; positive”; the mutagenic call (Test System: AMES SALMONELLA TYPHIMURIUM, Strain/Indicator: TA100(NR), Metabolic Activation: RAT, LIVER, S-9, AROCLOR 1254, Method: PREINCUBATION) is “active; positive”; the mutagenic call under setting [2] was “active; positive”; the mutagenic call (Test System: AMES SALMONELLA TYPHIMURIUM, Strain/Indicator: TA100, Metabolic Activation: RAT, LIVER, S-9, AROCLOR 1254, Method: PREINCUBATION) is “active; positive”.
As to `C[Si]1(C)O[Si](C)(C)O[Si](C)(C)O1`, the mutagenic call by setting is: (Test System: AMES SALMONELLA TYPHIMURIUM, Strain/Indicator: TA98, Metabolic Activation: NONE, Method: STANDARD PLATE) “inactive; negative”; (Test System: AMES SALMONELLA TYPHIMURIUM, Strain/Indicator: TA98, Metabolic Activation: RAT LIVER S-9, AROCLOR 1254, Method: STANDARD PLATE) “inactive; negative”; (Test System: AMES SALMONELLA TYPHIMURIUM, Strain/Indicator: TA100, Metabolic Activation: NONE, Method: STANDARD PLATE) “inactive; negative”; (Test System: AMES SALMONELLA TYPHIMURIUM, Strain/Indicator: TA100, Metabolic Activation: RAT LIVER S-9, AROCLOR 1254, Method: STANDARD PLATE) “inactive; negative”; (Test System: AMES SALMONELLA TYPHIMURIUM, Strain/Indicator: TA1535, Metabolic Activation: NONE, Method: STANDARD PLATE) “inactive; negative”; (Test System: AMES SALMONELLA TYPHIMURIUM, Strain/Indicator: TA1535, Metabolic Activation: RAT LIVER S-9, AROCLOR 1254, Method: STANDARD PLATE) “inactive; negative”. Also, the mutagenic call is “inactive; negative” (Test System: AMES SALMONELLA TYPHIMURIUM, Strain/Indicator: TA1537, Metabolic Activation: NONE, Method: STANDARD PLATE); “inactive; negative” (Test System: AMES SALMONELLA TYPHIMURIUM, Strain/Indicator: TA1537, Metabolic Activation: RAT LIVER S-9, AROCLOR 1254, Method: STANDARD PLATE); “inactive; negative” (Test System: AMES SALMONELLA TYPHIMURIUM, Strain/Indicator: TA1538, Metabolic Activation: NONE, Method: STANDARD PLATE); “inactive; negative” (Test System: AMES SALMONELLA TYPHIMURIUM, Strain/Indicator: TA1538, Metabolic Activation: RAT LIVER S-9, AROCLOR 1254, Method: STANDARD PLATE); “inactive; negative” (Test System: E. COLI, Strain/Indicator: P3078 POLA, Metabolic Activation: NONE, Method: SPOT TEST); “inactive; negative” (Test System: E. COLI, Strain/Indicator: P3078 POLA, Metabolic Activation: RAT LIVER S-9, AROCLOR 1254, Method: SPOT TEST). For the same compound, the mutagenic call is, setting by setting: (Test System: E. COLI, Strain/Indicator: W3110, Metabolic Activation: NONE, Method: SPOT TEST) “inactive; negative”; (Test System: E. COLI, Strain/Indicator: W3110, Metabolic Activation: RAT LIVER S-9, AROCLOR 1254, Method: SPOT TEST) “inactive; negative”; under setting [3], “inactive; negative”; (Test System: MOUSE LYMPHOMA, Strain/Indicator: L5178Y (TK+/TK-), Metabolic Activation: RAT, LIVER, S-9, Method: SUSPENSION/PLATE) “inactive; negative”.

For the origin of these results see PubChem BioAssay AID1259407 (Chemical Carcinogenesis Research Information System (CCRIS), 2018).
